Test results taken from patent US9045483B2, “Inhibition of small ubiquitin-like modifier enzymes with substituted pyrrolo[2,3-b]quinoxalines” (City of Hope, priority 2010, dated 2015).
“Also recorded” adds a separate entry of the source. Where two headings read alike, the source gives them in different places.

Columns and labels:
SUMO E1 [1] = target: T1, SUMO E1 (Homo sapiens (Human), UniProt Q9UBT2); conditions: in the presence of Mg2+; read-out: Kd of ATP binding to E1; cited from earlier work
T1 sequence (Q9UBT2 whole entry): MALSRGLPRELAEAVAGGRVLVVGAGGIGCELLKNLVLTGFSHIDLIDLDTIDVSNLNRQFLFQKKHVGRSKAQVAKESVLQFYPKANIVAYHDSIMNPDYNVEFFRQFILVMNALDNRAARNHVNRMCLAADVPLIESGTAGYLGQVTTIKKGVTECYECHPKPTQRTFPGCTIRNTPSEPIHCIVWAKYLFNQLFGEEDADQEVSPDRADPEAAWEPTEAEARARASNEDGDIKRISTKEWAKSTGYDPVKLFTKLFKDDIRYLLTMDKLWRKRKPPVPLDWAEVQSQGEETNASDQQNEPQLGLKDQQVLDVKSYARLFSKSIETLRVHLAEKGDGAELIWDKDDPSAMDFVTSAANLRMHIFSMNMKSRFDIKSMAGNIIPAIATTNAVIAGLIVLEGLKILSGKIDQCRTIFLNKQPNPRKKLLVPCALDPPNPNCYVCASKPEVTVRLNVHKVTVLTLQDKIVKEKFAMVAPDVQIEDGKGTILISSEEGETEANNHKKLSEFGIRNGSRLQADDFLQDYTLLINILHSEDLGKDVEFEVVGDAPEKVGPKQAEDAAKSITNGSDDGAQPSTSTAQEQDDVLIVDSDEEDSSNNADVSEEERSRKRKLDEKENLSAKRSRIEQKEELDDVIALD
T1 sequence (Q9UBE0 whole entry partner): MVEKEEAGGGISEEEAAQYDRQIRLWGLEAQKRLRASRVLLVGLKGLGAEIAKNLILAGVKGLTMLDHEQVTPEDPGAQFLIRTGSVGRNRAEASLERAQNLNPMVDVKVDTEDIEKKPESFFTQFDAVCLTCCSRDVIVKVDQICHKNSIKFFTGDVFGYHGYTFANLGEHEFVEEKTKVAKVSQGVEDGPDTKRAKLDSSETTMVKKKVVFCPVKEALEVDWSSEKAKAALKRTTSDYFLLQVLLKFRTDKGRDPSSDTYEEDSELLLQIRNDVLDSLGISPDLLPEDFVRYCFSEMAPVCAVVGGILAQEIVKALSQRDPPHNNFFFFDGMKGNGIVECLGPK

ubiquitin E1 = ubiquitin E1 (Homo sapiens (Human), UniProt P22314); conditions: Ubc5-ubiquitin thioester vs Ubc9-SUMO thioester
ubiquitin E1, sequence (P22314 whole entry, looked up): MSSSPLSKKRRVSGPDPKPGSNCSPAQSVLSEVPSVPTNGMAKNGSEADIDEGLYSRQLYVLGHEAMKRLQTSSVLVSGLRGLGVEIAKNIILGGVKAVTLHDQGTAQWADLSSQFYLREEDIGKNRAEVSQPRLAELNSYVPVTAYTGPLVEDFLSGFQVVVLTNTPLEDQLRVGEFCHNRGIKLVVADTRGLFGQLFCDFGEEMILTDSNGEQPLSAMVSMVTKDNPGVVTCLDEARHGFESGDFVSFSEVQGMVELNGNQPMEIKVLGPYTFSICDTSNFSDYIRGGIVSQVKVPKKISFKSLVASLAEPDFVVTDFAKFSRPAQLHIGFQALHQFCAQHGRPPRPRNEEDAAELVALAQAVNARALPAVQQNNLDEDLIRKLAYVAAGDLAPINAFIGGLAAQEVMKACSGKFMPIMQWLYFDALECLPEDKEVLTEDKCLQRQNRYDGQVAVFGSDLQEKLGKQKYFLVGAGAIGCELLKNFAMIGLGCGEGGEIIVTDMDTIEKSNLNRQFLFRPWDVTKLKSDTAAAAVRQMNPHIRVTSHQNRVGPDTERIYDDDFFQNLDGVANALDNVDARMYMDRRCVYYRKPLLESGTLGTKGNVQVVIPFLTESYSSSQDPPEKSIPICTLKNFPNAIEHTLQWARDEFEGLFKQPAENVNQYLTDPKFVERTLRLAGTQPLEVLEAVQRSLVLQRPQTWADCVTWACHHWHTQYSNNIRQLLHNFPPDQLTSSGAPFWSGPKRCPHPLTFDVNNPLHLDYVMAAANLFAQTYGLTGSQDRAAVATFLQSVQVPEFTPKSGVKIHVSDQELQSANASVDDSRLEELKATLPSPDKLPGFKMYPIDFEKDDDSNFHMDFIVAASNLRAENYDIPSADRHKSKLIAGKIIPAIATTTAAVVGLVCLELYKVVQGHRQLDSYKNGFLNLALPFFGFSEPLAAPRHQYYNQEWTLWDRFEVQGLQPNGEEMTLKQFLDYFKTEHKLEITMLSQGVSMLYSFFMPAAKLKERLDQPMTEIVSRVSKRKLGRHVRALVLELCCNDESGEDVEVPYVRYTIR

SUMO E1 [2] = target: T1, SUMO E1; assay: SUMO E1 inhibition, formation of the Ubc9-SUMO thioester (biochemical assay)
BRCA1 = BRCA1 colocalization with γH2AX in IR-treated cells; assay type: cell-based; conditions: 20 μM, 18 hours, 1 Gy
Description: (Green: BRCA1; Red: γH2AX).

[3] = system: global SUMOylation in HT29, HCT116 and U373 cells; assay: Global SUMOylation in cancer cell lines, Western blot with anti-SUMO2/3 antibodies; assay type: cell-based; conditions: 18 hours; for inhibition of SUMOylation in cells: various concentrations, HCT116, HT29, U373
Protocol: Western blots (probed with anti-SUMO2/3 antibodies) of cell lysates from HT29, HCT116 and U373 cells treated with compound 1. SUMO2/3 modifies many proteins as poly-SUMO chains, and is detected as high molecular weight smears. 16c indicates the control compound 2 used at concentrations of 16 μM.
Quinoxaline 1 or 2 was added to cell culture media at various concentrations for 18 hours, after which SUMOylated proteins were detected using anti-SUMO antibodies. […] Thus, quinoxaline 1 has potent and specific inhibitory effects in various cancer cell lines.

Fa2N-4 cells = assay: Toxicity on immortalized human hepatocytes, cellular ATP viability assay; assay type: cell-based; conditions: Fa2N-4, concentrations up to 50 μM, 24 hrs
Protocol: FIG. 9 illustrates the toxicity of the SUMO inhibitor on normal human liver cells. Immortalized human hepatocytes, Fa2N-4 cells (XenoTech) were seeded at ˜50-60K cells/well, and incubated with a range of concentrations (0.01-50 μM) 1, in duplicate, for 24 hrs at 37° C., 5% CO2. Cell viability was determined by cellular ATP levels using the Luminescence ATP Detection Assay System (Tecan).

53BP1 = 53BP1 colocalization with γH2AX at DSB sites in IR-treated cells; assay type: cell-based; conditions: 20 μM, 18 hours, 1 Gy, 1 hour recovery
Description: (Green: γH2AX; Red: 53BP1).

[4] = system: MCF7, H1299, DLD1 and SJSA cancer cell lines; assay: Sensitization of cancer cell lines to irradiation, MTS cell survival assay; assay type: cell-based; conditions: for sensitization of cancer cell lines to radiation: drug 4 hours, then 4 Gy
Protocol: The cells were treated with different doses of the drug for 4 hours, followed by irradiation with 4 Gy and incubation for an additional 68 hours. […] Cell survival was assessed by MTS assays
Quinoxaline 1 was added to cultures of various cancer cell lines for 4 hours, after which cells were irradiated at 4 Gy. Forty-eight hours after irradiation, cell viability was measured by MTS assay.

HIV = assay type: cell-based
SUMO E1 [5] = target: T1, SUMO E1; assay: NMR saturation transfer difference (STD) competition with ATP; assay type: binding
Description: In (A), ATP spectra with assignments indicated, and the percentage of STD effects indicated for each resonance. Red spectrum indicates 2 s saturation at −30 ppm (control), blue spectrum (underneath red) indicates 2 s saturation of protein signals at 0 ppm, and green spectrum (bottom) indicates the difference between the red and blue spectra. […] […] The corresponding STD spectra are color-coded as indicated to the right. A region of the spectrum covering H2 of ATP and H12 and H13 from the compound are shown, with the H2 signal of ATP expanded in the inset. […] The titration data was used to estimate Kd of the compound.

[6] = system: RanGAP1 stable SUMOylation in U20S and DLD1 cells; assay: Stable SUMOylation, RanGAP1 and RanBP2 localization by immunohistochemistry; assay type: cell-based; conditions: 18 hours
Protocol: Cells were treated with the compound at indicated concentration for 18 hours, and then localization of RanGAP1 and RanBP2 was detected by immunohistochemistry. Nuclei are stained with DAPI.

[7] = in vitro, read-out: IC50 for SUMO E1

Nc1ncnc2c1ncn2[C@@H]1O[C@H](COP(=O)(O)OP(=O)(O)OP(=O)(O)O)[C@@H](O)[C@H]1O [ATP]
Kd (SUMO E1 [1]): ~0.2 µM

CCCCn1c(NS(=O)(=O)c2ccccc2)c(S(=O)(=O)c2ccc(C)cc2)c2nc3ccccc3nc21 [Tricyclic Compound 1]
IC50 for ubiquitin E1 relative to SUMO E1 (selectivity) (ubiquitin E1): > 100 fold
IC50 for ubiquitin E1 relative to SUMO E1 (selectivity) (ubiquitin E1; listed as quinoxaline 1): more than 100 fold
IC50 (SUMO E1 [2]; in vitro, listed as compound 1, read-out: IC50 for SUMO E1): ~0.5 µM
IC50 (SUMO E1 [2]; [7]): 0.5 µM
BRCA1 colocalization with γH2AX (BRCA1; DLD1 cells, 1 hour recovery): inhibits BRCA1 colocalization with γH2AX
BRCA1 colocalization with γH2AX (BRCA1; U20S cells, 1 hour): inhibits BRCA1 colocalization with γH2AX
inhibition at 16 µM ([3]; 16 μM): > 80%
inhibition of SUMOylation in cells [3]: inhibits global SUMOylation in a dose-dependent manner
inhibition of SUMOylation in cells ([3]; listed as Quinoxaline 1): inhibited SUMOylation in a dose-dependent manner
toxicity to human hepatocytes (Fa2N-4 cells): did not cause significant toxicity
toxicity to human hepatocytes (Fa2N-4 cells; listed as Quinoxaline 1): no toxicity was detected
53BP1 colocalization with γH2AX (53BP1; DLD1 cells): inhibits 53BP1 colocalization with γH2AX
53BP1 colocalization with γH2AX (53BP1; U20S cells): inhibits 53BP1 colocalization with γH2AX
toxicity in cancer cell lines [4]: induced some toxicity in selected cancer cell lines
sensitization of cancer cell lines to radiation ([4]; listed as MLS-0207587): significantly lower survival rate
sensitization of cancer cell lines to radiation ([4]; listed as Quinoxaline 1): significantly enhanced the sensitivity
inhibition of HIV infection (HIV): inhibited HIV infection in a dose dependent manner; also recorded: inhibits HIV infection in a dose-dependent manner
competition with ATP binding to E1 (SUMO E1 [5]): strong competition with ATP binding
reduction in the STD of ATP (SUMO E1 [5]; 30 μM inhibitor, 80 μM ATP, 2 μM E1, 0.4 mM Mg2+): more than 60%
Kd (SUMO E1 [5]; estimated from competitive STD data, read-out: Kd (inhibitor-enzyme dissociation constant)): ~0.18 µM
competition with ATP binding to E1 (SUMO E1 [5]; listed as quinoxaline 1): competed with the binding of ATP
effect on stable SUMOylation [6]: does not disrupt stable SUMOylation

CCCCn1c(NC(=O)c2ccccc2Cl)c(C#N)c2nc3ccccc3nc21 [Tricyclic Compound 2]
IC50 (SUMO E1 [2]; [7]): 20 µM

CCCCn1c(NC(=O)c2ccccc2)c(C#N)c2nc3ccccc3nc21 [Tricyclic Compound 3]
IC50 (SUMO E1 [2]; [7]): 3.6 µM

CCCCn1c(NC(C)=O)c(C#N)c2nc3ccccc3nc21 [Tricyclic Compound 4]
IC50 (SUMO E1 [2]; [7]): 8.3 µM

N#Cc1c(NC(=O)c2ccccc2Cl)n(Cc2ccccc2)c2nc3ccccc3nc12 [Tricyclic Compound 5]
IC50 (SUMO E1 [2]; [7]): 25 µM

CCCCn1c(N)c(S(=O)(=O)c2ccccc2)c2nc3ccccc3nc21 [Tricyclic Compound 6]
IC50 (SUMO E1 [2]; [7]): 64 µM

CCCCn1c(NC(=O)c2ccccc2)c(S(=O)(=O)c2ccccc2)c2nc3ccccc3nc21 [Tricyclic Compound 7]
IC50 (SUMO E1 [2]; [7]): 98 µM

CCCCn1c(NC(=O)c2ccc(Cl)cc2)c(C#N)c2nc3cc(C)c(C)cc3nc21 [Tricyclic Compound 8]
IC50 (SUMO E1 [2]; [7]): 4.5 µM

CCCCNC(=O)c1c(NC(=O)c2ccccc2Cl)n(Cc2ccccc2)c2nc3ccccc3nc12 [Tricyclic Compound 9]
IC50 (SUMO E1 [2]; [7]): 1.1 µM

CCCCn1c(NC(=O)c2ccco2)c(C#N)c2nc3ccccc3nc21 [Tricyclic Compound 10]
IC50 (SUMO E1 [2]; [7]): 5.7 µM

CCCCn1c(NC(=O)c2ccccc2Cl)c(S(=O)(=O)c2ccccc2)c2nc3ccccc3nc21 [Tricyclic Compound 11]
IC50 (SUMO E1 [2]; [7]): > 100 µM

C=CCn1c(NS(=O)(=O)c2ccccc2)c(S(=O)(=O)c2ccc(C)cc2)c2nc3ccccc3nc21 [Tricyclic Compound 12]
IC50 (SUMO E1 [2]; [7]): 0.5 µM

CCCCn1c(NC(=O)c2ccc(F)cc2)c(C#N)c2nc3ccccc3nc21 [Tricyclic Compound 13]
IC50 (SUMO E1 [2]; -BSA, read-out: IC50(-BSA)): 0.76 µM
